Experimental data as given in ChEMBL document CHEMBL1201862, “PubChem BioAssay data set” (2004).
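Assay format: 96-well plates, 48-hour exposure. Abbreviation: GI50, concentration required for 50% inhibition of growth.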 Activity calls are given as the source filed them. Rule as the data show it: active = GI50 up to about 1.1 µM and inactive = higher.

How the values were obtained:
Experiment in all cases: inhibition of tumour cell growth, NCI panel, 48 h
HCC 2998 = test system: HCC 2998
HCT-116 = test system: HCT-116
K562 = test system: K562
MOLT-4 = test system: MOLT-4
Malme-3M = test system: Malme-3M
NCI-H522 = test system: NCI-H522
OVCAR-3 = test system: OVCAR-3
SN12C = test system: SN12C
SNB-19 = test system: SNB-19
SNB-75 = test system: SNB-75
SR = test system: SR
TK-10 = test system: TK-10
UACC-62 = test system: UACC-62
HOP-62 = test system: HOP-62
RPMI-8226 = test system: RPMI-8226
MCF7 = test system: MCF7
NCI-H226 = test system: NCI-H226

Measured: GI50

COC[C@@H](Cc1ccc(OC)c(OC)c1)[C@@H](COC)Cc1ccc(OC)c(OC)c1
inactive: HCC 2998 > 100 µM | HCT-116 94 µM | K562 > 100 µM | MOLT-4 60.3 µM | Malme-3M > 100 µM | NCI-H522 64.1 µM | OVCAR-3 > 100 µM | SN12C > 100 µM | SNB-19 > 100 µM | SNB-75 > 100 µM | SR 95.3 µM | TK-10 > 100 µM | UACC-62 > 100 µM

O=C(NNC(=O)c1nsc2ccccc12)c1ccc(Cl)cc1
inactive: HCC 2998 16.9 µM | HCT-116 17.5 µM | HOP-62 18.3 µM | K562 19.1 µM | MOLT-4 20.4 µM | OVCAR-3 17.2 µM | RPMI-8226 20.4 µM | SN12C 17.6 µM | SNB-19 19.1 µM | SNB-75 2.93 µM | SR 25.1 µM | TK-10 26.3 µM | UACC-62 > 10 µM

CN(C)/N=N/c1ccc([N+](=O)[O-])cc1C(N)=O
inactive: HCC 2998 > 100 µM | HCT-116 > 100 µM | HOP-62 > 90.4 µM | K562 > 100 µM | MCF7 > 100 µM | MOLT-4 > 79.6 µM | Malme-3M > 100 µM | NCI-H226 > 100 µM | NCI-H522 > 92.7 µM | OVCAR-3 > 100 µM | RPMI-8226 > 100 µM | SN12C > 100 µM | SNB-19 > 66.5 µM | SNB-75 > 100 µM | UACC-62 > 100 µM

Nc1nnc(CCC(=O)Nc2cc(Cl)ccc2Cl)n1N
inactive: HCC 2998 > 100 µM | HCT-116 > 100 µM | HOP-62 > 100 µM | K562 > 100 µM | MOLT-4 > 100 µM | Malme-3M > 100 µM | NCI-H226 > 100 µM | NCI-H522 > 100 µM | OVCAR-3 > 100 µM | RPMI-8226 > 100 µM | SN12C > 100 µM | SNB-19 > 100 µM | SNB-75 > 100 µM | SR > 100 µM | TK-10 > 100 µM | UACC-62 > 100 µM

COc1cccc(C2C(C(=O)O)=C(CO)Oc3cc4c(cc32)OCO4)c1 (configuration not stated)
inactive: K562 > 100 µM | MOLT-4 > 100 µM | Malme-3M > 100 µM | NCI-H226 > 100 µM | NCI-H522 > 100 µM | OVCAR-3 > 100 µM | RPMI-8226 > 100 µM | SN12C > 100 µM | SNB-19 > 100 µM | SNB-75 > 100 µM | TK-10 > 100 µM | UACC-62 > 100 µM

C=COCCCOc1ccccc1
inactive: HCC 2998 > 100 µM | HCT-116 > 100 µM | HOP-62 > 100 µM | K562 > 100 µM | MOLT-4 > 100 µM | Malme-3M > 100 µM | NCI-H226 > 100 µM | NCI-H522 > 100 µM | OVCAR-3 > 100 µM | RPMI-8226 > 100 µM | SN12C > 100 µM | SNB-19 > 100 µM | SR > 100 µM | TK-10 > 100 µM

CCCCNC1=C2C(=O)NN=C2CO1
inactive: HCC 2998 > 100 µM | HCT-116 > 100 µM | HOP-62 > 100 µM | K562 > 100 µM | MOLT-4 > 100 µM | NCI-H226 > 100 µM | NCI-H522 > 100 µM | RPMI-8226 > 100 µM | SN12C > 100 µM | SNB-19 > 100 µM | SNB-75 > 100 µM | SR > 100 µM | TK-10 > 100 µM | UACC-62 > 100 µM

C=C1C(=O)O[C@@H]2[C@H]3O[C@]3(C)CCC=C(C)CC[C@@H]12
inactive: HCC 2998 24.2 µM | HCT-116 10.3 µM | HOP-62 49.1 µM | K562 21.8 µM | MCF7 16.4 µM | MOLT-4 14.2 µM | Malme-3M 13.4 µM | NCI-H226 20.5 µM | NCI-H522 5.47 µM | OVCAR-3 18.4 µM | RPMI-8226 8.71 µM | SN12C 22.9 µM | SNB-19 63.7 µM | SNB-75 48.4 µM | UACC-62 16.8 µM
